Data on four compounds can be found in patent publication US11998665B2, “Biodegradable ureteral stents, methods and uses thereof” (ASSOCIATION FOR THE ADVANCEMENT OF TISSUE ENGINEERING AND …, priority 2016, dated 2024).

≈ marks a conversion by molar mass, not a printed value. Read-outs that look alike come from different tables or passages of the source.

For data set [1], the system named is T24 cells (human urothelial carcinoma cell line). Nature of the data set: MTT cell viability, free anti-cancer drugs, IC50 determination in T24 cells. Format: cell-based. Here is the method: (§1) In an embodiment, the present disclosure used a human urothelial carcinoma cell line, T24 (ATCC, U.S.A.) as a cancer cell line to model the urothelial carcinoma and human umbilical vein endothelial cells, HUVEC, (ATCC, U.S.A.) as a control, non-cancerous cell line. The T24 cell line and HUVEC cells were cultured in RPMI-1640 and EGM™-2 medium, respectively, with (10% fetal bovine serum (FBS), 1 mM L-glutamine and 1% penicillin/streptomyocin), Cells were maintained at 37° C. in a humidified 5% CO2 atmosphere.
(§2) In an embodiment, in vitro efficacy of anti-cancer drugs against T24 cells and HUVEC cells-IC50 determination. The cytotoxicity of paclitaxel, epirubicin, doxorubicin and gemcitabine was evaluated by determining the viability of T24 and HUVEC cells after exposure to medium containing the free drug at a range of concentrations from 0.01 to 2000 ng/ml. Free drugs in medium were prepared by first dissolving the anticancer drugs in DMSO (50 mg/ml) and this solution was then diluted in culture medium to achieve the desired concentration. A standard MTT cell proliferation assay (CellTiter 96® Aqueous One Solution Cell Proliferation Assay) was used to test cell viability and was performed on both cell lines to determine the half maximal inhibitory concentration (1050) of each drug. 5000 cells per well were seeded in a 96-well plate with 100 μl medium for T24 and HUVEC cells. After incubation for 24 h, the medium in each well was aspirated off and the cells were exposed to 100 μl of fresh medium containing the drugs at various concentrations for 4 h and 72 h. The cells after 4 h treatment were further cultured for 72 h in fresh (drug-free) medium. After that, the culture medium in each well was replaced by 100 μl of medium and 20 μl of CellTiter 96® AQueous One Solution Reagent, followed by 4 h incubation at 37° C. A latex rubber extract was used as negative control for cell death; while cell culture medium was used as positive control. Cell viability was quantified by UV-spectroscopy, reading the formazan absorbance at 490 nm in a microplate reader (SpectraMax i3, Molecular Devices, USA). Each sample formulation and control was tested using 12 replicates.
(§3) In an embodiment, the 1050 was determined from the fitting of the curve of cell viability, measured by MTT and the drug concentration. The fitting was performed using GraphPad software (GraphPad Prism 6.00 software, San Diego, USA).
(§4) In an embodiment, the effect of the anti-cancer drugs (IC50) when in contact with T24 and HUVEC cells was investigated by a cell viability test, namely the MTT assay. From this, the IC50 was calculated for each of the four drugs in each of the two cell lines. In this case, IC50 is a measure of the concentration needed to inhibit cell survival, and is routinely used to specify the in vitro potency of a drug (Sebaugh, 2011). The T24 cell line was chosen as a muscle invasive urothelial cancer and the HUVEC cells were used as non-cancerous control cells. The cytotoxicity evaluation was carried out either after 4 h or 72 h of exposure of the cells to the free drugs at different concentrations (FIGS. 5 A and B). […] In FIGS. 5 (A and B) it is possible to see, for both cell types the trend of concentration-dependent cytotoxicity. These are similar, in all cases and as it would be expected the 72 h exposure present a higher killing efficacy. Comparing the results between the two cells it is possible to conclude that the cancer cells are much more sensitive to the anti-cancer drugs compared with the HUVEC cells.

The test system of data set [2] is HUVEC cells (human umbilical vein endothelial cells). Briefly: MTT cell viability, free anti-cancer drugs, IC50 determination in HUVEC cells. Format: cell-based. On the procedure: as §1, §2, §3, §4
Data set [3] in a line: Quantity of drug impregnated in stents by scCO2 (UV-spectroscopy after degradation in AUS). Format: physicochemical. The following applies: for Quantity of drug impregnated by scCO2: 90 min, 100 bar, 40° C.; for increase in the impregnation yield when ethanol was used as a co-solvent: DrugEtOH versus pure scCO2; for % loaded: amount of drug impregnated by scCO2 in BUS. On the procedure: In an embodiment, a supercritical CO2 impregnation of anti-cancer drugs was performed, in the biodegradable ureteral stents (BUS) of the present disclosure. The were biodegradable ureteral stents prepared were placed in high-pressure vessel with anti-cancer drugs (10 mg) according to FIG. 2. The anti-cancer drugs were impregnated in the stents with and without the presence of a co-solvent. The scCO2 impregnation conditions used were 100 bar at 40° C. and 90 min. Carbon dioxide was liquefied and pumped to the desired pressure using a membrane pump (MCPV-71, Haskel, Germany). Impregnation took place in batch mode for 90 min followed by fast depressurization of the system. When a co-solvent was employed, 10% (v/v) ethanol was used. A commercial non-degradable ureteral stent (Biosoft® duo, Porges, Coloplast) was impregnated with same drugs at the same conditions with co-solvent, to be used as a control. To enhance the mechanical properties of the stent a PCL coating was applied. To evaluate the effect of coating on the release of the drugs the condition BUS+Co-Solvent was prepared twice and one of this batches was coated with PCL resin.
The anticancer drugs impregnation yield (I) was calculated from Eq. (1): I(%)=mdrug/mstent+mdrug×100 Eq. (1) where mstent is the polymer mass at the beginning of the process and the mdrug is the mass of the respective anticancer drug released after complete degradation of the stents in AUS. Anti-cancer drugs concentration was calculated from a calibration curve prepared from standard solutions. The samples were analyzed by UV-spectroscopy using a microplate reader (SpectraMax i3, Molecular Devices, USA) at the maximum absorbance for each drug (227 nm for PA, 254 nm for EP and DOX and 268 nm for GEM). All the experiments were performed in triplicate.
In an embodiment, impregnation efficiency of anti-cancer drugs in the biodegradable ureteral stents (BUS) was determined as a function of mass (μg) of anti-cancer drugs per mass (mg) of the polymer. In the DrugEtOH conditions, the amount of anti-cancer drug impregnated in the stents is higher, as it would be expected due to the co-solvent effect of ethanol in the enhancement of drug the solubility in CO2. The amount of impregnated paclitaxel in pure scCO2 (PAbio) was 0.046 μg mg-1, whereas those in PAEtOH condition was […] (0.067 μg mg-1). A similar percentage was reported by Yoda et al. (Yoda et al., 2011) in which the authors report the impregnation of paclitaxel in an amorphous poly(DL-lactic acid) (PDLLA) matrix. The amount of paclitaxel impregnated by Yoda et al. in PDLLA was 2-3 times higher compared with the alginate/gelatin matrix obtained in this work. This can be justified by the higher affinity of the drug-CO2 solution in the hydrophobic PDLLA matrix (Kazarian, 2000). Furthermore, PDLLA may also have greater swelling in the presence of scCO2 than the alginate/gelatin polymer blend (Cooper, 2000; Yoda et al., 2011). […] In the case of the Biosoft® duo, Porges, Coloplast stents the amount of drug impregnated is 6-times lower compared with BUS impregnated with paclitaxel under the same conditions. The lower amount of drug impregnated can be related with lower swelling ability of the polymeric matrix of the commercial stent in scCO2 and/or by lower affinity of the drugs with composition material of the Biosoft® duo, Porges, Coloplast stent.

The subject of the next data set is T24 cancer cells. The settings on record: cited from earlier work.
Setting [4] is: T-24, 4 h exposure then 72 h in drug-free medium.
Where [5] appears, read: 4 h exposure then 72 h in drug-free medium.
Where [6] appears, read: DrugCom: commercial non-degradable stent with co-solvent.
[7] abbreviates: DrugETOH: BUS + 10% ethanol co-solvent.
Where [8] appears, read: Drugbio: BUS without co-solvent.

What is called IC50 is the point on the concentration scale where inhibition reaches its midpoint. With `COc1cccc2c1C(=O)c1c(O)c3c(c(O)c1C2=O)C[C@@](O)(C(=O)CO)C[C@@H]3O[C@H]1C[C@H](N)[C@H](O)[C@H](C)O1` [Doxorubicin, doxorubicin], the IC50 is 187 ± 5.18 µg/mL (≈ 344 µM) in data set [1] (setting [4]); 29.3 ± 10 µg/mL (≈ 53.9 µM) in data set [1] (T-24, 72 h exposure); 2150 ± 58.2 µg/mL (≈ 3950 µM) in data set [2] (setting [5]); 647 ± 21.4 µg/mL (≈ 1190 µM) in data set [2] (72 h exposure); 0.0116 µg/mL (≈ 0.0213 µM) with T24 cancer cells (doxorubicin, T24 cancer cells, Lu et al., 2015a); 4 µg/mL (≈ 7.36 µM) with T24 cancer cells (doxorubicin, T24 cancer cells, Yu et al., 2015). For the same compound, the “Quantity of drug impregnated by scCO2” value in data set [3] (setting [6]) amounted to 0.208 μgdrug/mgpolymer; in data set [3] (setting [7]), 3.748 μgdrug/mgpolymer; in data set [3] (setting [8]), 3.297 μgdrug/mgpolymer. Also, the “increase in the impregnation yield when ethanol was used as a co-solvent” value (from here on “increase in the impregnation yield”) in data set [3] is reported as 12%.

Take `COc1cccc2c1C(=O)c1c(O)c3c(c(O)c1C2=O)C[C@@](O)(C(=O)CO)C[C@@H]3O[C@H]1C[C@H](N)[C@@H](O)[C@H](C)O1` [Epirubicin, epirubicin]: the IC50 stood at 67 ± 2.34 µg/mL (≈ 123 µM) in data set [1] (setting [4]); 15.7 ± 1.02 µg/mL (≈ 29 µM) in data set [1] (T-24, 72 h exposure); 2050 ± 33.2 µg/mL (≈ 3770 µM) in data set [2] (setting [5]); 139 ± 13.6 µg/mL (≈ 256 µM) in data set [2] (72 h exposure). In addition, the entries for the “Quantity of drug impregnated by scCO2” value in data set [3] (setting [6]), in data set [3] (setting [7]) and in data set [3] (setting [8]) were 0.118 μgdrug/mgpolymer, 1.779 μgdrug/mgpolymer and 1.498 μgdrug/mgpolymer, respectively. The “increase in the impregnation yield” value in data set [3] came to 15%.

On to `Nc1ccn([C@@H]2O[C@H](CO)[C@@H](O)C2(F)F)c(=O)n1` [Gemcitabine, gemcitabine], for which the IC50 in data set [1] (setting [4]) amounted to 99 ± 1.29 µg/mL (≈ 376 µM); in data set [1] (T-24, 72 h exposure), 0.89 ± 0.27 µg/mL (≈ 3.38 µM); in data set [2] (setting [5]), 413.6 ± 2.68 µg/mL (≈ 1570 µM); in data set [2] (72 h exposure) it was 237 ± 16.7 µg/mL (≈ 901 µM). Further, the “Quantity of drug impregnated by scCO2” value in data set [3] (setting [6]) is given as 2.312 μgdrug/mgpolymer; in data set [3] (setting [7]), 19.572 μgdrug/mgpolymer; in data set [3] (DrugETOH: BUS + 10% ethanol co-solvent, listed as gemcitabine), 19.57 μgdrug/mgpolymer; in data set [3] (setting [8]) it was 18.183 μgdrug/mgpolymer. Besides, the “increase in the impregnation yield” value in data set [3] is 8%. The “% loaded” value in data set [3] was found to be 2%.

Turning to `CC(=O)O[C@H]1C(=O)[C@@]2(C)[C@H]([C@H](OC(=O)c3ccccc3)[C@]3(O)C[C@H](OC(=O)[C@H](O)[C@@H](NC(=O)c4ccccc4)c4ccccc4)C(C)=C1C3(C)C)[C@]1(OC(C)=O)CO[C@@H]1C[C@@H]2O` [Paclitaxel, paclitaxel], the IC50 was 0.282 µg/mL (≈ 0.33 µM) in data set [1] (setting [4]); 0.0073 µg/mL (≈ 0.00855 µM) in data set [1] (T-24, 72 h exposure); 0.85 µg/mL (≈ 0.995 µM) in data set [2] (setting [5]); 0.502 µg/mL (≈ 0.587 µM) in data set [2] (72 h exposure); 0.00285 µg/mL (≈ 0.00334 µM) in the data set with T24 cancer cells (paclitaxel, Hadaschik et al., 2008). Besides, the “Quantity of drug impregnated by scCO2” value worked out at 0.014 μgdrug/mgpolymer in data set [3] (setting [6]), 0.067 μgdrug/mgpolymer in data set [3] (setting [7]) and 0.046 μgdrug/mgpolymer in data set [3] (setting [8]). Also, the “% loaded” value in data set [3] turned out to be 0.01%.
